Source: patent publication US20080081823A1, “PIPECOLIC ACID-CONTAINING ANTIDIABETIC COMPOSITIONS” (Ajinomoto Co., Inc., priority 2006, published 2008)

Tests used:
normal rats = assay: Oral glucose tolerance test in normal rats provided with pipecolic acid feed for 4 weeks; type: in vivo, Male SD rats; conditions: normal SD rats
Excerpt: (a) It was examined whether the increase of the blood glucose after oral injection of glucose to normal rats could be inhibited by providing them with D,L pipecolic acid for 4 weeks.
(b) Male SD rats of 9 weeks old were used to start the experiment.
(c) 24 normal rats were divided into 3 groups (each group consisting of 8 rats) so that their fasting blood glucose and body weights became the same. Feeds adding 0, 0.2 or 0.4% D,L pipecolic acid were provided to each group for 4 weeks. Then, they were fasted for 17 hours, and 10% glucose solution was orally administered to them in its provided amount of 2 g/kg of body weight. At 0, 15, 30, 60, and 120 minutes after the administration, the blood glucose level and blood insulin concentration were measured.
(§1) (b) Preparation of feeds: D,L pipecolic acid (produced by Aldrich) was mixed in small portions with a commercial feed (CRF-1, produced by Oriental Yeast Co., Ltd.) and further mixed together for 5 minutes by using a universal mixer (produced by Dalton Corporation).
(c) Farming rats: 24 (3 experimental sections×8) male SD rats of 7 weeks old were purchased from Charles River Laboratories Japan, Inc. and each was separately farmed in an animal room in a light-dark cycle of 12 hours (7:00 to 19:00) at room temperature of 25° C. After habituation for two weeks, they were divided into 3 groups based on their body weights and fasting blood glucoses, and then the above feeds were provided for 4 weeks. Every Mondays, Wednesdays and Fridays during the period, their body weights and amounts of food ingested were measured, and the feeds were added. 4 weeks later, the oral glucose tolerance test was conducted.
(d) Oral glucose tolerance test: Fasting was started at 17:00 of the day before the test. At 10:00 of the test day, 10% glucose solution was orally administered to the rats in its provided amount of 2 g/kg of body weight. 0, 15, 30, 60, and 120 minutes after the administration, their blood was collected and their blood glucose levels and blood insulin concentrations were measured. The blood glucose levels were promptly measured after the blood collection by using a biochemical auto-analyzer for animals (Fuji DriChem 5500, produced by Fuji Photo Film Co., Ltd.). Further, the collected blood was centrifuged with a centrifuge (himac CF15D, produced by IlitachiKoki Co., Ltd) to take out the blood plasma, and the blood insulin concentrations were measured by using an insulin measurement kit (produced by Morinaga Institute of Biochemical Science, Inc.). FIG. 1A and FIG. 1B indicate the blood glucose transitions and the area under the blood glucose concentration time curve; and FIG. 1C indicates transitions of the blood insulin concentration.

[1] = system: model mice with Type II diabetes; assay: Measurement of lipids in the liver of model mice with Type II diabetes; type: in vivo, Male KK-Ay mice; conditions: KK-Ay mice
Procedure: (§2) (a) It was examined whether D,L pipecolic acid has an effect on blood and liver lipids of model mice with Type II diabetes.
(§3) (b) Male KK-Ay mice of 6 weeks old were used to start the experiment.
(c) 16 KK-Ay mice were divided into 2 groups based on their body weights. Feeds wherein 0 or 1.6% D,L pipecolic acid was added were provided to each group for 5 weeks. At the fifth week, they were fasted, and their blood was collected and their livers were extracted to measure their fasting blood triglyceride, fasting blood total cholesterol, fasting free fatty acids in the blood, total lipids in the liver, liver triglyceride and liver total cholesterol.
as §1
(§4) (c) Farming mice: 16 (2 experimental sections×8) male KK-Ay mice of 4 weeks old were purchased from Clea Japan, Inc. and each was separately farmed in an animal room in a light-dark cycle of 12 hours (7:00 to 19:00) at room temperature of 25° C. After naturalizing two weeks, they were divided into 2 groups based on their body weights, and the above feeds were provided to them for 5 weeks. Every Mondays, Wednesdays and Fridays during the period, their body weights and amounts of food ingested were measured, and the feeds were added. After 5 weeks passed, they were fasted for 17 hours, their blood was collected and their livers were extracted. The fasting blood triglyceride, fasting blood total cholesterol, fasting free fatty acids in the blood, total lipids in the liver, liver triglyceride and liver total cholesterol were measured by using those samples.
(e) Measurement of lipids in the liver: About 0.5 g of a liver sample is homogenized in 10 mL of chloroform/methanol (2:1) solution, and lipids are extracted overnight. […] 5 mL thereof is concentrated by drying with a centrifugal evaporator, and its weight measured becomes total lipids in the liver. […]

[2] = system: model mice with Type II diabetes; assay: Measurement of lipids in the blood of model mice with Type II diabetes; type: in vivo, Male KK-Ay mice; conditions: KK-Ay mice, feed adding 1.6% for 5 weeks, fasting, average value
Procedure: as §2, §3
(c) 16 KK-Ay mice were divided into 2 groups based on their body weights. Feeds wherein 0 or 1.6% D,L pipecolic acid was added were provided to each group for 5 weeks. At the fifth week, they were fasted, and their blood was collected and their livers were extracted to measure their fasting blood triglyceride, fasting blood total cholesterol, fasting free fatty acids in the blood, total lipids in the liver, liver triglyceride and liver total cholesterol. […]
as §4, with “After naturalizing two weeks, they were divided into 2 groups based on their body weights, and the above feeds were provided to them for 5 weeks.” left out, “After 5 weeks passed, they were fasted for 17 hours, their blood was collected and their livers were extracted.” left out, “samples. […]” for “samples.”

[3] = system: model mice with Type II diabetes; assay: Oral glucose tolerance test in model mice with Type II diabetes; type: in vivo, Male KK-Ay mice; conditions: KK-Ay mice; for increase of blood glucose in the oral glucose tolerance test: feed adding 0.4%
Excerpt: (a) It was examined whether D,L pipecolic acid has an effect of improving the pathology of model mice with Type II diabetes.
(b) Male KK-Ay mice, which are the model mice with Type II diabetes, were used to start the experiment.
(c) 24 KK-Ay mice were divided into 3 groups based on their body weights, and the blood glucose levels and transitions of the blood insulin concentrations when injected glucose. Feeds adding 0, 0.4 or 0.8% D,L pipecolic acid were provided to each group for 10 weeks. At the second and eighth weeks after starting the test, their blood glucose levels and blood insulin concentrations after oral injection of glucose were measured. At the ninth week, the insulin tolerance test was conducted, and at the tenth week, autopsy was conducted to the samples to measure weights of epididymal fats and perinephric fats. […]
(§5) (c) Farming mice: 24 male KK-Ay mice of 5 weeks old were purchased from Clea Japan, Inc. and each was separately farmed in an animal room in a light-dark cycle of 12 hours (7:00 to 19:00) at room temperature of 25° C. Then, KK-Ay mice were divided into 3 groups based on their blood glucose levels and blood insulin concentrations measured when giving glucose. […] At the second and eighth weeks, the oral glucose tolerance test was conducted, and their blood glucoses and blood insulin concentrations after oral injection of glucose were measured. […] Then, at the tenth week, autopsy was conducted to the samples, and weights of epididymal fats and perinephric fats were measured to see effects of pipecolic acid on weights of visceral fats.
(d) Oral glucose tolerance test: Fasting was started at 20:00 of the day before the test. […] 0, 30, 60, 120, 180, and 240 minutes after the administration, their blood was collected and their blood glucose levels and blood insulin concentrations were measured. The blood glucose levels were promptly measured after the blood collection by using a biochemical auto-analyzer for animals (Fuji DriChem 5500, produced by Fuji Photo Film Co., Ltd.). […]

[4] = system: model mice with Type II diabetes; assay: Autopsy: weights of epididymal fats and perinephric fats in model mice with Type II diabetes; type: in vivo, Male KK-Ay mice; conditions: KK-Ay mice, feed adding 0.8%, autopsy at tenth week
Procedure: (§6) (c) 24 KK-Ay mice were divided into 3 groups based on their body weights, and the blood glucose levels and transitions of the blood insulin concentrations when injected glucose. Feeds adding 0, 0.4 or 0.8% D,L pipecolic acid were provided to each group for 10 weeks. At the second and eighth weeks after starting the test, their blood glucose levels and blood insulin concentrations after oral injection of glucose were measured. At the ninth week, the insulin tolerance test was conducted, and at the tenth week, autopsy was conducted to the samples to measure weights of epididymal fats and perinephric fats.
as §5, with “fats. […]” for “fats.”

[5] = system: model mice with Type II diabetes; assay: Insulin tolerance test in model mice with Type II diabetes; type: in vivo, Male KK-Ay mice; conditions: KK-Ay mice, feed adding 0.8%, ninth week, insulin 0.5 U/kg subcutaneous, compared with additive-free group
Procedure: as §6
as §5, with “fats. […]” for “fats.”

obese model rats = assay: Oral glucose tolerance test in obese model rats (high-fat diets) provided with pipecolic acid for 4 weeks; type: in vivo, Male SD rats; conditions: 0.2 or 0.4% added to high-fat diets for 4 weeks
Excerpt: (a) It is reported that obese model rats produced by giving high-fat diets express insulin resistance and develop hyperinsulinemia. It was examined whether the increase of the blood glucose and blood insulin concentration after oral injection of glucose to these obese model rats could be inhibited by providing them with D,L pipecolic acid for 4 weeks.
(b) Male SD rats of 6 weeks old were used to start the experiment.
(c) 48 rats were divided into 2 groups so that their fasting blood glucoses and body weights became the same. Normal diets or high-fat diets were given to them for 3 weeks (model production period). […] 0, 15, 30, 60, and 120 minutes after the administration, their blood glucose levels and blood insulin concentrations were measured. […]
(d) Farming rats: 48 (6 experimental sections×8) male SD rats of 5 weeks old were purchased from Charles River Laboratories Japan, Inc. and each was separately farmed in an animal room in a light-dark cycle of 12 hours (7:00 to 19:00) at room temperature of 25° C. […] Every Mondays, Wednesdays and Fridays during all periods starting from the model production period to the end of the test period, their body weights and amounts of food ingested were measured, and the feeds were added. […]

[6] = feed adding 0.4% for 4 weeks, glucose 2 g/kg oral
[7] = feed adding 1.6% for 5 weeks, average value

## O=C(O)C1CCCCN1 (centres unmarked) [D,L pipecolic acid]
Normal rats; feed adding 0.2% for 4 weeks, glucose 2 g/kg oral
  increase of the blood glucose after oral injection of glucose: inhibited
Normal rats; feed adding 0.2 or 0.4% for 4 weeks, any group and any time period after glucose
  blood insulin concentration: did not change
Normal rats; [6]
  blood glucose of 30 and 60 minutes after the administration: decreased
  increase of the blood glucose after oral injection of glucose: inhibited
[1]; feed adding 0 or 1.6% for 5 weeks
  total lipids in the liver: significantly correlate with the additive amount of pipecolic acid
[1]; [7]
  decrease of liver total cholesterol as compared with the control group: about 20%
  decrease of liver triglyceride as compared with the control group: about 20%
[2]
  decrease of blood triglyceride as compared with the control group: about 20%
  decrease of free fatty acids in the blood as compared with the control group: about 20%
[3]; eighth week
  increase of blood glucose in the oral glucose tolerance test: no strong effect of inhibiting the increase of the blood glucose was confirmed
[3]; second week, compared with additive-free group
  increase of blood glucose in the oral glucose tolerance test: inhibited
[3]; feed adding 0.8%, until the eighth week
  increase of the blood glucose after injection of glucose: effect of inhibiting the increase of the blood glucose after injection of glucose was seen
[4]
  weights of epididymal fats: decreased
  weights of perinephric fats: decreased
[5]
  decrease of the blood glucose after administering insulin: promoted
Obese model rats; after glucose 2 g/kg oral
  blood insulin concentration: decreased to around the same extent as that of the normal diet groups
Obese model rats; glucose 2 g/kg oral
  increase of the blood glucose after giving glucose: hardly inhibited
